Values quoted from earlier work in publication PMC10017685 (Nature Communications, 2023).
Where two headings read alike, the source gives them in different places.

Tested on: human erythrocytes
Set-up: method as in DBAASP
Conditions: cited from earlier work
[1] = toxicity class label 1 or 0, meaning of the labels not given, DBAASP HC50 data, human erythrocytes, ref DBAASP

Row | Sequence | Class (dedicated toxicity dataset used for toxicity classifier evaluation) [1] | Class (dedicated toxicity dataset used for toxicity classifier evaluation)
1 | KFLGTLVNLAKKIL [DBAASP_5014] | 0 | –
2 | KGIVGMLGKLF [DBAASP_5480] | 0 | –
3 | KIAGKIAKIAGKIA [DBAASP_10129] | – | 0
4 | KIAGKIAKIAGKIAKIAGKIA [DBAASP_691] | – | 0
5 | KIAKGALKALKIAKGALKAL [DBAASP_11229] | 0 | –
6 | KIAKGALKALKIAKVALKAL [DBAASP_11228] | 1 | –
7 | KIAKIAGKIAKIAGKIA [DBAASP_14992] | 0 | –
8 | KIAKIAGKIAKIAGKIAKIAGKIA [DBAASP_14995] | 1 | –
9 | KIAKVALKALKIAKGALKAL [DBAASP_9754] | 0 | –
10 | KIAKVALKALKIAKVALKAL [DBAASP_9753] | 0 | –
11 | KIALKALKALKALGKALKAL [DBAASP_11232] | 1 | –
12 | KIFGAIWPLALGALKNLIK [DBAASP_7010] | 1 | –
13 | KIGKALGKALKALGKALGKA [DBAASP_11230] | 1 | –
14 | KIKWILKYWKWS [DBAASP_10700] | 0 | –
15 | KIWFQNKKMKWKK [DBAASP_8802] | 0 | –
16 | KIWFQNRRMKWKK [DBAASP_8800] | 0 | –
17 | KKKKKKKKKGGGLLALLALLA [DBAASP_13727] | 1 | –
18 | KKKLAKLKLGAKLKLKGKLGA [DBAASP_13729] | 0 | –
19 | KKLFKKILKYL [DBAASP_197] | 0 | –
20 | KKLFKKILKYLA [DBAASP_13463] | 1 | –
21 | KKLIKKILKIL [DBAASP_5047] | 0 | –
22 | KKVLKAAA [DBAASP_7361] | 0 | –
23 | KKVLKAAA [DBAASP_7362] | 0 | –
24 | KKVLKAAA [DBAASP_7365] | 1 | –
25 | KKYLLPIVGNLLKSLL [DBAASP_7638] | 0 | –
26 | KLALKLALKALKAALKLA [DBAASP_1030] | 1 | –

Row | Sequence | Class (dedicated toxicity dataset used for toxicity classifier evaluation) [1] | Class (dedicated toxicity dataset used for toxicity classifier evaluation)
27 | KLFKKLFK [DBAASP_17848] | 0 | –
28 | KLGFENFLVKALKTVMHVPTSPLL [DBAASP_5711] | 0 | –
29 | KLLGPLLKIAAKVGSNLL [DBAASP_4921] | 0 | –
30 | KLLKFIKTLL [DBAASP_3151] | 0 | –
31 | KLLKKAGKLLKKAGKLLKKAG [DBAASP_13728] | 0 | –
32 | KLLKRIKKLL [DBAASP_3152] | 0 | –
33 | KLLKRIKTLL [DBAASP_3149] | 0 | –
34 | KLLKVIKKLL [DBAASP_3153] | 0 | –
35 | KQIKIWFQNKKMKWKK [DBAASP_8799] | 0 | –
36 | KQKLAKLKAKLQKLKQKLAKL [DBAASP_10912] | 0 | –
37 | KRIVQRIKDFLR [DBAASP_146] | 0 | –
38 | KRIVQRIKKWLR [DBAASP_6827] | 0 | –
39 | KRRVRWIIW [DBAASP_17712] | 0 | –
40 | KWAVRIIRKFIKGFIS [DBAASP_13726] | 0 | –
41 | KWCFRVCYRGICYRRCR [DBAASP_2229] | – | 0
42 | KWCVYAYVKVKGVLVKYKKCW [DBAASP_2027] | 0 | –
43 | KWFKIQLQIKKWKNKK [DBAASP_8806] | 0 | –
44 | KWKLFKKIFKRIVQRIKDFLRN [DBAASP_9530] | 0 | –
45 | KWKVFKKAEKMIRNIRNKIVK [DBAASP_11863] | 0 | –
46 | KWKVFKKIEKMARNIRNKIVK [DBAASP_11864] | 0 | –
47 | KWKVFKKIEKMIRNIRNKIAK [DBAASP_11865] | 0 | –
48 | LALKSGGWLRLFGLKDKKH [DBAASP_6706] | 0 | –
49 | LKKVLKAAA [DBAASP_7359] | 0 | –
50 | LLGMIPLAISAISALSKL [DBAASP_3893] | 0 | –
51 | LLGPVLGLVSNVLGGLL [DBAASP_12136] | 0 | –
52 | LLKKVLKAAA [DBAASP_7357] | 0 | –

Row | Sequence | Class (dedicated toxicity dataset used for toxicity classifier evaluation) [1] | Class (dedicated toxicity dataset used for toxicity classifier evaluation)
53 | LLKKVLKAAA [DBAASP_7358] | 1 | –
54 | LPFFLLSLIPSAISAIKKI [DBAASP_8437] | 1 | –
55 | LWGALLGLGSTLLSKL [DBAASP_18167] | 1 | –
56 | LWKIGKKIWRVLWNWR [DBAASP_17519] | 1 | –
57 | LWKIWKKIWRVGWNWR [DBAASP_17513] | 0 | –
58 | LWKIWKKIWRVWKNWR [DBAASP_17516] | 1 | –
59 | LWKIWWKIWRVWKNWR [DBAASP_17523] | 1 | –
60 | MPLSWFFPRTWGKR [DBAASP_9722] | 0 | –
61 | NILNTIINLAKKIL [DBAASP_3562] | 0 | –
62 | NLLGSLLKTGLKVGSNLL [DBAASP_5712] | 0 | –
63 | PFKIDIHLGGY [DBAASP_7635] | 0 | –
64 | RAGLQFPVGRVHRLLRK [DBAASP_7651] | 0 | –
65 | RFCVYAYVRVRGVLVRYRRCF [DBAASP_13515] | 0 | –
66 | RFRRLRKKTRKRLKKI [DBAASP_7143] | 0 | –
67 | RIGVLLARLPKLFSLFKLMGKKV [DBAASP_4189] | 0 | –
68 | RIRFPWPWRWPWWPRFRG [DBAASP_8616] | 0 | –
69 | RIRIRWIIR [DBAASP_17706] | 0 | –
70 | RIRWILRYWRWS [DBAASP_10701] | 0 | –
71 | RIWFQNRRMRWRR [DBAASP_8801] | 0 | –
72 | RPPQFTRAQWFAIQHISLN [DBAASP_6545] | 1 | –
73 | RQIKIWFQNRRLKWKK [DBAASP_8797] | 0 | –
74 | RQIKIWFQNRRMKWKK [DBAASP_6203] | 0 | –
75 | RQIRIWFQNRRMRWRR [DBAASP_8798] | 0 | –
76 | RQYMRQIEQALRYGYRISRR [DBAASP_14411] | 0 | –
77 | RRGCFRVCYRGFCFQRCR [DBAASP_12233] | – | 0
78 | RRWCVYAYVRVRGVRVYAYVCW [DBAASP_13506] | 0 | –

Row | Sequence | Class (dedicated toxicity dataset used for toxicity classifier evaluation) [1] | Class (dedicated toxicity dataset used for toxicity classifier evaluation)
79 | RRWRIVVIRVRR [DBAASP_1204] | – | 0
80 | RRWYRRWYRRWY [DBAASP_17315] | 0 | –
81 | RWCRRYRVRVRGVLVYAYVCW [DBAASP_13505] | 0 | –
82 | RWCVYAYVRVRGVLVRYRRCW [DBAASP_13517] | 0 | –
83 | RWFKIQLQIRRWKNKK [DBAASP_8805] | 0 | –
84 | RWFKIQMQIRRWKNKK [DBAASP_8804] | 0 | –
85 | RWFRIQLQIRRWRNRR [DBAASP_8807] | 0 | –
86 | RWGKWFKKATHVGKHVGKAALTAYL [DBAASP_997] | 0 | –
87 | RWQWRWQWR [DBAASP_10099] | 0 | –
88 | RWRRFWRR [DBAASP_12823] | 0 | –
89 | RWWLRRIW [DBAASP_10630] | 0 | –
90 | SAVGRHGRRFGLRKHRKH [DBAASP_3348] | 0 | –
91 | SAVGRHLRRFGLRKHRKH [DBAASP_7659] | 0 | –
92 | SAVGRHLRRFLLRKHRKH [DBAASP_7660] | 0 | –
93 | SAVLRHLRRFLLRKHRKH [DBAASP_7661] | 0 | –
94 | SAVWRHWRRFWLRKHRKH [DBAASP_9988] | 0 | –
95 | SAVWRRWRRFWLRKRRKR [DBAASP_9990] | 0 | –
96 | SAVWRWRRFWLRKRK [DBAASP_9989] | 0 | –
97 | SFLTTVKKLVTNLAAL [DBAASP_13626] | 0 | –
98 | SILPTIVSFLSKVF [DBAASP_13348] | 1 | –
99 | SKVGRHGRRFGHRAHRKL [DBAASP_7662] | 0 | –
100 | SKVGRHLRRFGHRAHRKL [DBAASP_7663] | 0 | –
101 | SKVGRHLRRFLHRAHRKL [DBAASP_7664] | 0 | –
102 | SKVLRHLRRFLHRAHRKL [DBAASP_7665] | 0 | –
